Laboratory results taken from PubChem BioAssay (NCI).
Where “and” joins values, the source holds several entries; their conditions need not be identical. Equal entries are not always repeated.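 Grown in 96-well plates, cells were treated for 48 hours with each compound at five concentrations. Insufficient inhibition: endpoint recorded as highest concentration tested. The concentration for 50% growth inhibition is given as GI50. At the TGI there is no net growth.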

Legend:
Experiment in all cases: NCI-60 cell line screen, 48 h
A549 NSCLC = system: A549 NSCLC
COLO 205 colon = system: COLO 205 colon
EKVX NSCLC = system: EKVX NSCLC
HL-60(TB) leukemia = system: HL-60(TB) leukemia
HOP-62 NSCLC = system: HOP-62 NSCLC
HT29 colon = system: HT29 colon
OVCAR-8 ovarian = system: OVCAR-8 ovarian
SF-539 CNS = system: SF-539 CNS
SW-620 colon = system: SW-620 colon
U251 CNS = system: U251 CNS

Structure (SMILES)	GI50 (A549 NSCLC)	TGI (A549 NSCLC)	GI50 (COLO 205 colon)	TGI (COLO 205 colon)	GI50 (EKVX NSCLC)	TGI (EKVX NSCLC)	GI50 (HL-60(TB) leukemia)	TGI (HL-60(TB) leukemia)	GI50 (HOP-62 NSCLC)	TGI (HOP-62 NSCLC)	GI50 (HT29 colon)	TGI (HT29 colon)	GI50 (OVCAR-8 ovarian)	TGI (OVCAR-8 ovarian)	GI50 (SF-539 CNS)	TGI (SF-539 CNS)	GI50 (SW-620 colon)	TGI (SW-620 colon)	GI50 (U251 CNS)	TGI (U251 CNS)
Fc1ccc(Nc2ncnc3ccc(-c4cnc5[nH]ccc5c4)cc23)cc1Cl	1.79 µM	5.33 µM	3.58 µM	46.3 µM	0.769 µM	> 100 µM	7.76 µM	40.1 µM	3.54 µM	15.6 µM	2.05 µM	> 25.1 µM	2.94 µM	14.9 µM	2.3 µM	7.65 µM	4.02 µM	> 47.3 µM	2.17 µM	6.2 µM
O=C(NCCNc1nccc(-c2c(-c3cccc(O)c3)nc3sccn23)n1)c1ccccc1O	5.02 µM	> 51.1 µM	5.32 µM	23.4 µM	11.8 µM	50.9 µM	3.38 µM	> 29.4 µM	9.04 µM	42.1 µM	3.61 µM	20.7 µM	3.14 µM	25.4 µM	7.27 µM	24.5 µM	5.86 µM	48.4 µM	4.9 µM	> 47.6 µM
CC1=C(C#N)C23C(=O)c4ccccc4C(O)=C2C(=O)C=CC3(O)N1Cc1ccccc1 (stereo unspecified)	72.2 µM	> 100 µM	16.6 µM	34.4 µM	43.6 µM	> 100 µM	37.8 µM	> 100 µM	49.9 µM	> 100 µM	43.7 µM	> 100 µM	38.5 µM	> 100 µM	48.2 µM	> 100 µM	37.1 µM	> 100 µM	42 µM	> 100 µM
O=C(CN1CCN(c2cc3c(cc2F)c(=O)c(C(=O)N/N=C/c2ccccc2O)cn3C2CC2)CC1)N/N=C\c1ccccc1O	0.569 µM	> 100 µM	0.371 µM	> 100 µM	1.11 µM	> 100 µM	0.36 µM		0.408 µM	> 100 µM	1.01 µM	> 100 µM	0.417 µM	> 100 µM	0.829 µM	> 64 µM	0.475 µM	> 100 µM	0.367 µM	> 100 µM
CCCCCCCC(=O)SCC/C=C/[C@@H]1CC(=O)NCc2cccc(n2)C2=N[C@@](C)(CS2)C(=O)N[C@@H](C(C)C)C(=O)N1	0.723 µM	> 33.3 µM	0.468 µM	1.62 µM	1.75 µM	> 33.3 µM	0.509 µM	> 33.3 µM	1.07 µM	> 33.3 µM	0.181 µM	7.23 µM	0.421 µM	> 33.3 µM	2.72 µM	> 33.3 µM	6.33 µM	> 33.3 µM	0.889 µM	8.16 µM
O=c1n(CC2CO2)c(=O)n(CC2CO2)n1CC1CO1 (stereo unspecified)	5.9 µM	> 72 µM	6.04 µM	41.5 µM	32.7 µM	> 100 µM	4.99 µM	> 49.4 µM	4.7 µM	> 35.5 µM	19.3 µM	> 100 µM	27.2 µM	> 100 µM	4.89 µM	> 54.3 µM	22.5 µM	> 100 µM	10.9 µM	> 100 µM
COc1cc(C(=O)/C=C/c2sc(Cl)nc2Cl)cc(OC)c1OC	3.18 µM	11.8 µM	1.72 µM	3.9 µM	1.67 µM	3.12 µM	1.82 µM	4.45 µM	2.29 µM	5.6 µM	2.21 µM	5.53 µM	1.93 µM	3.96 µM	1.72 µM	3.12 µM	1.68 µM	3.45 µM	1.88 µM	3.69 µM
CC(=O)NC1=C(NCC(C)(C)C)C(=O)c2ccccc2C1=O		> 100 µM		> 100 µM		> 100 µM		> 100 µM		> 100 µM		> 100 µM		> 100 µM		> 100 µM		> 100 µM		> 100 µM
O=C(CCl)N1c2ccccc2Oc2ccc3ccccc3c21	1.9 µM	3.81 µM	0.894 µM	2.35 µM	2.2 µM	5.9 µM	1.45 µM	4.86 µM	1.81 µM	3.25 µM	0.432 µM	1.51 µM	0.78 µM	2.28 µM	1.59 µM	3.1 µM	0.373 µM	1.48 µM	1.36 µM	2.7 µM
CC1(C)OC(=O)C(=Cc2ccc(O)cc2)C(=O)O1		> 100 µM		> 100 µM		> 100 µM		> 100 µM		> 100 µM		> 100 µM		> 100 µM		> 100 µM		> 100 µM		> 100 µM
COc1ccc(/C=C\c2cc(OC)c3c(c2)OCO3)c(O)c1O		> 100 µM		45.1 µM		40.4 µM		7.72 µM		64.5 µM		47.2 µM		32.5 µM		4.57 µM		26.1 µM		19.3 µM
O=C(O)c1cc(C(=O)O)cc(N2C(=O)c3ccccc3C2=O)c1		> 100 µM		> 100 µM		> 100 µM		> 100 µM		> 100 µM		> 100 µM		> 100 µM		> 100 µM		> 100 µM		> 100 µM
O=C1NNC(=O)c2ccccc2SSc2ccccc2C(=O)NNC(=O)c2ccccc2SSc2ccccc21	11.3 µM	50 µM and > 100 µM		50 µM	10.5 µM	50 µM and > 100 µM		23.8 µM		50 µM and > 100 µM	20.1 µM	50 µM and 72.1 µM	15.4 µM	50 µM and > 100 µM	2.87 µM	50 µM and > 100 µM	6.81 µM	50 µM and > 100 µM	7.11 µM	50 µM and > 100 µM
CC[C@@]12CCCN3CC[C@]4(c5cccc(OC)c5N(C(C)=O)[C@@H]4CC1)[C@H]32		> 100 µM		> 100 µM		> 100 µM		44.6 µM		> 100 µM		44 µM		> 100 µM		> 100 µM		> 100 µM		> 100 µM
